Where two headings read alike, the source gives them in different places. Marks after values point to notes of the source that are not given here.
How the values were obtained:
Format in all cases: in vivo
Alternaria solani = assay: Test H: tomato early blight, preventive spray on tomato seedlings, disease rating
In short: (§1)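 Tomato seedlings sprayed to run-off, as a preventive treatment, with compound suspended in acetone/water (50/50) containing 250 ppm Trem 014 surfactant; 200 ppm equals 500 g/ha. Disease then rated. Values are at 200 ppm unless marked * (40 ppm) or ** (50 ppm).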

Botrytis cinerea = assay: Test F: tomato Botrytis, preventive spray on tomato seedlings, disease rating
In short: as §1

Rhizoctonia oryzae = assay: Test I: turf brown patch, preventive spray on creeping bent grass seedlings, disease rating
Description: The test compounds were first dissolved in acetone in an amount equal to 3% of the final volume and then suspended at the desired concentration (in ppm) in acetone and purified water (50/50 mix) containing 250 ppm of the surfactant Trem® 014 (polyhydric alcohol esters). The resulting test suspensions were then used in Tests A-L. Spraying a 200 ppm test suspension to the point of run-off on the test plants was the equivalent of an application rate of 500 g/ha. The test suspension was sprayed to the point of run-off on creeping bent grass seedlings. […] A dash (-) indicates no test results. All results are for 200 ppm except where followed by an “*”, which indicates 40 ppm or “**”, which indicates 50 ppm.

[1] = tested on: Puccinia recondita f. sp. tritici; assay: Test B: wheat leaf rust, preventive spray on wheat seedlings, disease rating
In short: (§2)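 Disease ratings come from wheat seedlings sprayed preventively to run-off, mostly at 200 ppm, which corresponds to an application rate of 500 g/ha; certain entries used 40 ppm or 50 ppm. The carrier was 50/50 acetone/water with 250 ppm surfactant.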

Pythium aphanidermatum = assay: Test L: bluegrass pythium blight, preventive spray on bluegrass seedlings, disease rating
Description: The test compounds were first dissolved in acetone in an amount equal to 3% of the final volume and then suspended at the desired concentration (in ppm) in acetone and purified water (50/50 mix) containing 250 ppm of the surfactant Trem® 014 (polyhydric alcohol esters). The resulting test suspensions were then used in Tests A-L. Spraying a 200 ppm test suspension to the point of run-off on the test plants was the equivalent of an application rate of 500 g/ha. The test suspension was sprayed to the point of run-off on bluegrass seedlings. […] A dash (-) indicates no test results. All results are for 200 ppm except where followed by an “*”, which indicates 40 ppm or “**”, which indicates 50 ppm.

Phytophthora infestans = settings: tomato late blight
Septoria tritici = assay: Test D: wheat leaf blotch, preventive spray on wheat seedlings, disease rating
In short: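 Wheat seedlings sprayed to run-off with compound in acetone/water containing 250 ppm Trem 014 (200 ppm ≈ 500 g/ha; some results at 40 or 50 ppm), inoculated next day with Septoria tritici spores. Held 48 h saturated at 24 °C, then 19 days at 20 °C before disease rating.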

Plasmopara viticola = assay: Test K: grape downy mildew, spray on grape seedlings after inoculation, disease rating
Description: The test compounds were first dissolved in acetone in an amount equal to 3% of the final volume and then suspended at the desired concentration (in ppm) in acetone and purified water (50/50 mix) containing 250 ppm of the surfactant Trem® 014 (polyhydric alcohol esters). The resulting test suspensions were then used in Tests A-L. Spraying a 200 ppm test suspension to the point of run-off on the test plants was the equivalent of an application rate of 500 g/ha. Grape seedlings were inoculated with a spore suspension of Plasmopara viticola (the causal agent of grape downy mildew) and incubated in a saturated atmosphere at 20° C. for 24 h. After a short drying period, the test suspension was sprayed to the point of run-off on the grape seedlings and then moved to a growth chamber at 20° C. for 6 days, after which the test units were placed back into a saturated atmosphere at 20° C. for 24 h. Upon removal, disease ratings were made. […] A dash (-) indicates no test results. All results are for 200 ppm except where followed by an “*”, which indicates 40 ppm or “**”, which indicates 50 ppm.

Septoria nodorum = assay: Test C: wheat glume blotch, preventive spray on wheat seedlings, disease rating
In short: as §2

[2] = tested on: Erysiphe graminis f. sp. tritici; assay: Test A: wheat powdery mildew, preventive spray on wheat seedlings, disease rating
In short: as §2

Fusarium graminearum = settings: wheat head scab

Row | SMILES | Percentage Disease Control, Test H (Alternaria solani; 200 ppm) [%] | Percentage Disease Control, Test F (Botrytis cinerea; 200 ppm) [%] | Percentage Disease Control, Test I (Rhizoctonia oryzae; 200 ppm) [%] | Percentage Disease Control, Test L (Pythium aphanidermatum; 200 ppm) [%] | Percentage Disease Control, Test J (Phytophthora infestans; 200 ppm) [%] | Percentage Disease Control, Test D (Septoria tritici; 40 ppm (*)) | Percentage Disease Control, Test K (Plasmopara viticola; 200 ppm) [%] | Percentage Disease Control, Test E (Fusarium graminearum; 200 ppm) [%] | Percentage Disease Control, Test B ([1]; 200 ppm) [%] | Percentage Disease Control, Test C (Septoria nodorum; 200 ppm) [%] | Percentage Disease Control, Test A ([2]; 200 ppm) [%] | further results
1 | COC(=O)NOc1cc(-c2cccc(OC(F)(F)F)c2)ccc1Cl [Cmpd 18] | 70 | 0 | 0 | 98 | 89 | 98* % | 81 | 100 | – | – | – | Percentage Disease Control, Test B ([1]; 40 ppm (*)): 99* %; Percentage Disease Control, Test C (Septoria nodorum; 40 ppm (*)): 99* %; Percentage Disease Control, Test A ([2]; 40 ppm (*)): 100* %
2 | COC(=O)NCc1cc(-c2ccn(Cc3cccc(C)n3)n2)ccc1Cl [Cmpd 20] | 0 | 0 | 0 | 0 | 0 | – | 0 | 72 | 100 | 96 | 99 | –
3 | COC(=O)NCc1cc(-c2cc[nH]n2)ccc1Cl [Cmpd 21] | 0 | 0 | 0 | 0 | 0 | – | 0 | 0 | 79 | 0 | 0 | –
4 | C#CCCCn1ccc(-c2ccc(Cl)c(CNC(=O)OC)c2)n1 [Cmpd 24] | 0 | 0 | 0 | – | – | – | 83 | – | – | – | – | Percentage Disease Control, Test B ([1]; 40 ppm (*)): 99* %; Percentage Disease Control, Test J (Phytophthora infestans; 40 ppm (*)): 0* %; Percentage Disease Control, Test C (Septoria nodorum; 40 ppm (*)): 99* %; Percentage Disease Control, Test A ([2]; 40 ppm (*)): 96* %; Percentage Disease Control, Test E (Fusarium graminearum; 40 ppm (*)): 96* %
5 | COC(=O)NCc1cc(-c2ccn(C(C)[Si](C)(C)C)n2)ccc1Cl (centres unmarked) [Cmpd 29] | – | – | – | – | – | – | – | – | – | – | – | Percentage Disease Control, Test H (Alternaria solani; 50 ppm (**)): 67** %; Percentage Disease Control, Test F (Botrytis cinerea; 50 ppm (**)): 0** %; Percentage Disease Control, Test I (Rhizoctonia oryzae; 50 ppm (**)): 0** %; Percentage Disease Control, Test B ([1]; 50 ppm (**)): 98** %; Percentage Disease Control, Test L (Pythium aphanidermatum; 50 ppm (**)): 0** %; Percentage Disease Control, Test J (Phytophthora infestans; 50 ppm (**)): 0** %; Percentage Disease Control, Test D (Septoria tritici; 50 ppm (**)): 96** %; Percentage Disease Control, Test K (Plasmopara viticola; 50 ppm (**)): 27** %; Percentage Disease Control, Test C (Septoria nodorum; 50 ppm (**)): 82** %; Percentage Disease Control, Test A ([2]; 50 ppm (**)): 78** %
6 | COC(=O)NCc1cc(-c2ccn(CCC=C(C)C)n2)ccc1Cl [Cmpd 30] | 0 | 0 | 0 | 0 | 0 | – | 74 | – | 98 | 73 | 83 | Percentage Disease Control, Test D (Septoria tritici; 200 ppm): 90%
7 | COC(=O)NCc1cc(-c2ccn(CCC#N)n2)ccc1Cl [Cmpd 31] | – | – | – | – | – | 69* % | – | – | – | – | – | Percentage Disease Control, Test H (Alternaria solani; 40 ppm (*)): 0* %; Percentage Disease Control, Test F (Botrytis cinerea; 40 ppm (*)): 0* %; Percentage Disease Control, Test I (Rhizoctonia oryzae; 40 ppm (*)): 0* %; Percentage Disease Control, Test B ([1]; 40 ppm (*)): 0* %; Percentage Disease Control, Test L (Pythium aphanidermatum; 40 ppm (*)): 0* %; Percentage Disease Control, Test J (Phytophthora infestans; 40 ppm (*)): 0* %; Percentage Disease Control, Test K (Plasmopara viticola; 40 ppm (*)): 20* %; Percentage Disease Control, Test C (Septoria nodorum; 40 ppm (*)): 0* %; Percentage Disease Control, Test A ([2]; 40 ppm (*)): 0* %
8 | COC(=O)NCc1cc(-c2ccn(CCCC#N)n2)ccc1Cl [Cmpd 32] | 0 | 0 | 0 | 0 | 0 | – | 34 | – | 80 | 0 | 41 | Percentage Disease Control, Test D (Septoria tritici; 200 ppm): 88%
9 | COC(=O)NCc1cc(C(C)=NOCC(C)[Si](C)(C)C)ccc1Cl (centres unmarked) [Compound 2, methyl N-[[2-chloro-5-[1-[[2-(trimethylsilyl)propoxy]imino]ethyl]phenyl]-methyl]carbamate] | – | 0 | 0 | 0 | 0 | 91* % | 70 | 100 | 100 | 99 | 100 | –
10 | C=C(CON=C(C)c1ccc(Cl)c(CNC(=O)OC)c1)C[Si](C)(C)C [Compound 3] | – | 0 | 0 | 0 | 0 | 16* % | 26 | 87 | 100 | 99 | 98 | –
11 | C=C[Si](C)(C)CON=C(C)c1ccc(Cl)c(CNC(=O)OC)c1 [Compound 4] | – | 37 | 0 | 0 | 0 | 59* % | 74 | 97 | 99 | 99 | 98 | –

Reference: patent US9198433B2, “Substituted benzene fungicides” (E I DU PONT DE NEMOURS AND COMPANY, priority 2007, dated 2015)
